Measured values published in patent publication US9919978B2, “Selenium-doped nano silica sol used for producing selenium-enriched rice and capable of suppressing absorption and accumulation of heavy metals in paddy rice and preparation method therefor” (GUANGDONG INSTITUTE OF ECO-ENV[…] & TECHNOLOGY, priority 2013, dated 2018).

System: rice
Assay: Pot experiment: foliar application on rice grown in arsenic-contaminated soil (Example 4)
Format: in vivo, rice (variety Youyou 128)
From the text: The pot experiment for showing the effects of relieving the heavy metal poison in rice by foliar application of the selenium-doped nano-silica sol.
The soils to be tested were collected from an arsenic-contaminated rice field, in Yanhong Town, Chenghai District, Shantou City, Guangdong Province, China, the surface layer of the cultivated soils (0-10 cm) in the rice field was taken as the soil, air-dried and sieved, 10 kg of the soil were weighed and filled into barrels, wherein the basic physical and chemical properties of the soil were as follows: pH 6.12, organic matter 2.73%, total nitrogen 1.5 g/kg, total phosphorus 1.02 g/kg, total potassium 11.3 g/kg, CEC 8.75 cmol/kg, total arsenic 93.6 mg/kg, and total selenium 0.879 mg/kg.
Cultivation and treatment of rice: the rice variety was Youyou 128, the rice seed surface was disinfected for 15 minutes with 5% sodium hypochlorite solution, after washing with tap water, germination and seedling were carried out, then the uniform young seedlings were selected and transplanted. […] Each of the treatments was repeated four times, and the rices were harvested after they were matured. The dry weight of rice per pot was weighed, and the arsenic and selenium contents in rice were analyzed.

Compound: O=[Se]([O-])[O-].[Na+].[Na+] [1% Se, sodium selenite]
- selenium content in rice relative to that after the selenium-doped nano-silica sol with 1% selenium (foliar application): 66%
- dry weight of rice grain reduced as compared with the control (foliar application at tillering stage, diluted 100-fold, arsenic-contaminated soil): 13.1%
- selenium content in rice (foliar application, diluted 100-fold, control 0.050 mg/kg): 0.180 mg/kg
- reduction of arsenic content in rice as compared with the control (foliar application, diluted 100-fold, soil total arsenic 93.6 mg/kg): 19%
